The values below come from ChEMBL document CHEMBL4680137, “Synthesis and biological evaluation of some novel 1,2,3-triazole hybrids of myrrhanone B isolated from Commiphora mukul gum resin: Identification of potent antiproliferative leads active against prostate cancer cells (PC-3)” (Eur J Med Chem, 2020).

In assay [1] the test system is PC-3. Briefly: Induction of cell cycle arrest in human PC-3 cells assessed as accumulation at G0/G1 phase at 5 uM after 48 hrs by propidium iodide staining based flow cytometric analysis (reference value: 67.6%). The assay is classed as functional. For orientation: A flow cytometer gives signals particle by particle.
Assay [2] concerns PC-3. Description: Induction of cell cycle arrest in human PC-3 cells assessed as accumulation at Sub-G1 phase at 10 uM after 48 hrs by propidium iodide staining based flow cytometric analysis (reference value: 3.58%). The assay is classed as functional.
The test system of assay [3] is PC-3. Briefly: Induction of apoptosis in human PC-3 cells assessed as late apoptotic cells at 5 uM after 24 hrs by Annexin VFITC/PI staining based flow cytometric analysis (reference value: 0.2%). The assay is classed as functional.
Assay [4] can be described thus: Inhibition of Saccharomyces cerevisiae alpha-glucosidase using p-nitophenyl alpha […]D-glucoside incubated for 45 mins.
Assay [5] has as its system PC-3. Briefly: Induction of apoptosis in human PC-3 cells assessed as fragmented nuclei at 5 to 10 uM after 48 hrs by Hoechst 33258 staining fluorescence microscopic analysis. It counts as functional, cell-based. Particulars: dose 5-10 µM.
The subject of assay [6] is PC-3. Briefly: Induction of cell cycle arrest in human PC-3 cells assessed as accumulation at G0/G1 phase at 10 uM after 48 hrs by propidium iodide staining based flow cytometric analysis (reference value: 67.6%). The assay is classed as functional.
Assay [7] concerns U-87 MG. Briefly: Antiproliferative activity against human U87 cells assessed as reduction in cell viability after 48 hrs by MTT assay. It counts as functional, cell-based, U-87MG ATCC. In general terms: Tetrazolium dyes change colour on reduction, which living cells bring about.
For assay [8], the system named is PC-3. Description: Induction of cell cycle arrest in human PC-3 cells assessed as accumulation at G2/M phase at 10 uM after 48 hrs by propidium iodide staining based flow cytometric analysis (reference value: 20.7%). It counts as functional.
For assay [9], the system named is PC-3. Description: Induction of apoptosis in human PC-3 cells after 24 hrs by Annexin VFITC/PI staining based flow cytometric analysis. It counts as functional, cell-based.
Assay [10] deals with HT-29. Briefly: Antiproliferative activity against human HT-29 cells assessed as reduction in cell viability after 48 hrs by MTT assay. It counts as functional, cell-based. Conditions: HT-29, 48 h.
For assay [11], the system named is PC-3. Briefly: Induction of apoptosis in human PC-3 cells assessed as condensed chromatin at 5 to 10 uM after 48 hrs by acridine orange and ethidium bromide staining fluorescence microscopic analysis. The assay is classed as functional, cell-based. Particulars: dose 5-10 µM.
Assay [12] relates to PC-3. Briefly: Induction of apoptosis in human PC-3 cells assessed as viable cells at 5 uM after 24 hrs by Annexin VFITC/PI staining based flow cytometric analysis (reference value: 95.8%). It counts as functional. Particulars: read-out: Activity.
Assay [13] has as its system PC-3. Briefly: Induction of apoptosis in human PC-3 cells assessed as horse shoe shaped nuclei at 5 to 10 uM after 48 hrs by Hoechst 33258 staining fluorescence microscopic analysis. The assay is classed as functional, cell-based. Particulars: dose 5-10 µM.
In assay [14] the test system is PC-3. Description: Induction of apoptosis in human PC-3 cells assessed as destructive fragmentation of nuclei at 5 to 10 uM after 48 hrs by acridine orange and ethidium bromide staining fluorescence microscopic analysis. It counts as functional, cell-based. Particulars: dose 5-10 µM.
Assay [15] relates to PC-3. Description: Induction of apoptosis in human PC-3 cells assessed as early apoptotic cells at 5 uM after 24 hrs by Annexin VFITC/PI staining based flow cytometric analysis (reference value: 0.1%). It counts as functional.
Assay [16] deals with PC-3. Briefly: Induction of mitochondrial membrane potential loss in human PC-3 cells at 10 uM after 24 hrs by JC-1 dye based flow cytometric analysis relative to control. The assay is classed as functional.
The subject of assay [17] is PC-3. Briefly: Induction of apoptosis in human PC-3 cells assessed as condensed chromatin at 5 to 10 uM after 48 hrs by Hoechst 33258 staining fluorescence microscopic analysis. The assay is classed as functional, cell-based. Conditions: dose 5-10 µM.
The subject of assay [18] is PC-3. Description: Induction of apoptosis in human PC-3 cells assessed as late apoptotic cells at 2.5 uM after 24 hrs by Annexin VFITC/PI staining based flow cytometric analysis (reference value: 0.2%). The assay is classed as functional.
The test system of assay [19] is PC-3. Briefly: Induction of apoptosis in human PC-3 cells assessed as necrotic cells at 2.5 uM after 24 hrs by Annexin VFITC/PI staining based flow cytometric analysis (reference value: 4%). It counts as functional.
Assay [20] deals with A549. Briefly: Antiproliferative activity against human A549 cells assessed as reduction in cell viability after 48 hrs by MTT assay. It counts as functional, cell-based. Particulars: A549, 48 h.
For assay [21], the system named is PC-3. Briefly: Induction of ROS generation in human PC-3 cells at 10 uM incubated for 6 hrs by DSCFDA staining based spectroflurometric method. The assay is classed as functional, cell-based.
The test system of assay [22] is L132. Description: Cytotoxicity against human L132 cells assessed as reduction in cell viability after 48 hrs by MTT assay. It counts as cell-based. Particulars: L132, 48 h.
The test system of assay [23] is DU-145. Description: Antiproliferative activity against human DU-145 cells assessed as reduction in cell viability after 48 hrs by MTT assay. The assay is classed as functional, cell-based. Conditions: DU-145, 48 h.
Assay [24] concerns PC-3. Description: Induction of apoptosis in human PC-3 cells assessed as late apoptotic cells at 7.5 uM after 24 hrs by Annexin VFITC/PI staining based flow cytometric analysis (reference value: 0.2%). The assay is classed as functional.
The test system of assay [25] is PC-3. Briefly: Antiproliferative activity against human PC3 cells assessed as reduction in cell viability after 48 hrs by MTT assay. It counts as functional, cell-based. Conditions: PC-3, 48 h.
Assay [26] relates to SiHa. Briefly: Antiproliferative activity against human SiHa cells assessed as reduction in cell viability after 48 hrs by MTT assay. The assay is classed as functional, cell-based.
For assay [27], the system named is PC-3. Briefly: Induction of apoptosis in human PC-3 cells assessed as necrotic cells at 7.5 uM after 24 hrs by Annexin VFITC/PI staining based flow cytometric analysis (reference value: 4%). The assay is classed as functional.
For assay [28], the system named is MDA-MB-231. Briefly: Antiproliferative activity against human MDA-MB-231 cells assessed as reduction in cell viability after 48 hrs by MTT assay. It counts as functional, cell-based. Conditions: MDA-MB-231, 48 h.
Assay [29] concerns PC-3. Briefly: Induction of cell cycle arrest in human PC-3 cells assessed as accumulation at G2/M phase at 5 uM after 48 hrs by propidium iodide staining based flow cytometric analysis (reference value: 20.7%). The assay is classed as functional.
In assay [30] the test system is PC-3. Description: Induction of apoptosis in human PC-3 cells assessed as early apoptotic cells at 2.5 uM after 24 hrs by Annexin VFITC/PI staining based flow cytometric analysis (reference value: 0.1%). The assay is classed as functional.
The test system of assay [31] is PC-3. Description: Induction of apoptosis in human PC-3 cells assessed as early apoptotic cells at 7.5 uM after 24 hrs by Annexin VFITC/PI staining based flow cytometric analysis (reference value: 0.1%). It counts as functional.
The subject of assay [32] is PC-3. Description: Induction of cell cycle arrest in human PC-3 cells assessed as accumulation at S phase at 5 uM after 48 hrs by propidium iodide staining based flow cytometric analysis (reference value: 7.69%). It counts as functional.
Assay [33] deals with PC-3. Briefly: Induction of cell cycle arrest in human PC-3 cells assessed as accumulation at S phase at 10 uM after 48 hrs by propidium iodide staining based flow cytometric analysis (reference value: 7.69%). It counts as functional.
Assay [34] relates to PC-3. Description: Induction of apoptosis in human PC-3 cells assessed as necrotic cells at 5 uM after 24 hrs by Annexin VFITC/PI staining based flow cytometric analysis (reference value: 4%). The assay is classed as functional.
Assay [35] deals with PC-3. Description: Induction of apoptosis in human PC-3 cells assessed as viable cells at 2.5 uM after 24 hrs by Annexin VFITC/PI staining based flow cytometric analysis (reference value: 95.8%). It counts as functional. Conditions: read-out: Activity.
For assay [36], the system named is PC-3. Briefly: Induction of apoptosis in human PC-3 cells assessed as viable cells at 7.5 uM after 24 hrs by Annexin VFITC/PI staining based flow cytometric analysis (reference value: 95.8%). It counts as functional. Particulars: read-out: Activity.
The subject of assay [37] is PC-3. Description: Induction of cell cycle arrest in human PC-3 cells assessed as accumulation at Sub-G1 phase at 5 uM after 48 hrs by propidium iodide staining based flow cytometric analysis (reference value: 3.58%). It counts as functional.
Assay [38] has as its system Saccharomyces cerevisiae. Description: Potency index, ratio of acarbose IC50 to test compound IC50 for inhibition of Saccharomyces cerevisiae alpha-glucosidase.
In assay [39] the test system is Saccharomyces cerevisiae. Briefly: Potency index, ratio of Myrrhanone-B IC50 to test compound IC50 for inhibition of Saccharomyces cerevisiae alpha-glucosidase.
Assay [40] in a line: Inhibition of LPS-induced TNF-alpha expression in human U-937 cells preincubated for 1 hr followed by LPS addition and measured after 24 hrs by ELISA. It counts as functional, cell-based. (In general: ELISA stands for enzyme-linked immunosorbent assay.)
A short description of assay [41]: Inhibition of LPS-induced IL-1beta expression in human U-937 cells preincubated for 1 hr followed by LPS addition and measured after 24 hrs by ELISA. It counts as functional, cell-based.

What is called IC50 is the concentration needed to halve the response being measured.

Activity calls are given as the source filed them. The rule behind the calls is not given here. Bounds are passed on as bounds.

Regarding `C/C(=C\CC/C(C)=C/CC[C@@H]1[C@@]2(C)CCC(=O)C(C)(C)[C@H]2CC[C@@]1(C)O)CC/C=C(\C)C(=O)OCc1cn(-c2cccc(O)c2)nn1`, the Activity was 66.5% in assay [1]; 2.16% in assay [2]; 10.9% in assay [3]; 66.5% in assay [6]; 23.4% in [8]; “Dose-dependent effect” in assay [9]. Also, the Activity in assay [15] amounted to 58.8%; in [16], 22%; in [18] it was 8.7%; in [19], 0.8%; in assay [24], 12.1%; in assay [27], 1.4%. Besides, the Activity in [29] came out at 22.7%; in [30], 62.9%; in assay [31] it was 54.8%; in [32], 8.26%; in assay [33], 7.54%; in assay [34], 1%. Moreover, in assay [37], the Activity turned out to be 2.09%. The IC50 in assay [4] was 14.2 µM; in assay [7] it was over 150 µM; in [10], 38.6 µM; in [20], 42.8 µM; in assay [22], 146 µM; in assay [23], 28.4 µM. For the same molecule, the concentration for half-maximal inhibition (IC50) in [25] stood at 6.57 µM; in assay [26] it was 48 µM; in [28], 139 µM. Moreover, the outcome in assay [5], in assay [11], in assay [13], in [14], in assay [17] and in assay [21] was Active. Further, in assay [12], the viability at 5 µM is 29.3%. Further, the viability at 2.5 µM in assay [35] was found to be 27.7%. The viability at 7.5 µM in assay [36] came out at 31.7%.

`C/C(=C\CC/C(C)=C/CC[C@@H]1[C@@]2(C)CCC(=O)C(C)(C)[C@H]2CC[C@@]1(C)O)CC/C=C(\C)C(=O)OCc1cn(-c2ccc([N+](=O)[O-])cc2)nn1`: the Ratio IC50 in assay [38] was 767; in assay [39], 60.2. The IC50 in assay [20], in assay [22] and in [23] was over 150 µM each time.

As to `C/C(=C\CC/C(C)=C/CC[C@@H]1[C@@]2(C)CCC(=O)C(C)(C)[C@H]2CC[C@@]1(C)O)CC/C=C(\C)C(=O)OCc1cn([C@@H]2C[C@@H](n3cc(C)c(=O)[nH]c3=O)O[C@H]2CO)nn1`, the 50% inhibitory concentration (IC50) is over 150 µM in [7]; 55.6 µM in [10]; 8.34 µM in [40]; 35 µM in assay [20]; 115 µM in assay [22]; 13.8 µM in [23]. In addition, the half-inhibitory concentration (IC50) was 18.9 µM in assay [25], 9.12 µM in assay [41], 41.7 µM in [26] and 38 µM in assay [28].
